The results in this text go back to patent publication US11370775B2, “Substituted benzimidazole derivatives as D-amino acid oxidase (DAAO) inhibitors” (NATIONAL TAIWAN UNIVERSITY, priority 2016, dated 2022).

Structures are written as SMILES.

The target of experiment [1] is T1, porcine kidney DAO (Sus scrofa, UniProt P00371).
T1 construct: purchased Sigma-Aldrich; host or cells: porcine kidney
Kind of experiment: pkDAO enzymatic assay (porcine kidney DAO IC50 assay). It is filed as biochemical. To be noted: D-alanine substrate, pH 8.3, 37° C., without FAD. The method, then:
The DAAO enzymatic activity assay was modified according to the report of Oguri et al (Oguri, S., Screening of d-amino acid oxidase inhibitor by a new multi-assay method. Food chemistry 2007, 100 (2), 616). The DAAO activity was measured by using substrate D-alanine reaction produced hydrogen peroxide (H2O2) to further react with 3-(4-hydroxyphenyl) propionic acid (HPPA). The HPPA were oxidized by H2O2 and peroxidase to become the fluorogenic dimer which was measured to represent the activity of DAAO.
For porcine kidney DAO IC50 assay, the DAO substrate was prepared in 50 mM D-alanine (dissolved in 0.2 M Tris-HCl buffer, pH 8.3). A 100 μl of D-alanine solution was mixed with 4 μl (in 100% dimethyl sulfoxide, DMSO) of different concentrations of candidate compounds shown in tables below ranging from 48.83 μM, 97.66 μM, 195.31 μM, 390.63 μM, 781.25 μM, 1.56 mM, 3.13 mM, 6.25 mM, 12.50 mM, 25.00 mM, and 50.00 mM, with a final DMSO concentration of 0.167% in each reaction concentration. 10 μl of D-alanine and candidate compound mixture was incubated with 220 μl of Reaction Master Mix in black 96 well plate at 37° C. for 5 minutes. The Reaction Master Mix contained 110 μl of 5 U/mL porcine kidney DAO (Sigma-Aldrich, USA) solution (dissolved with 0.2 M Tris-HCl buffer, pH 8.3), 1.1 mL of 15 U/mL peroxidase solution (dissolved with 0.2 M Tris-HCl buffer, pH 8.3), 1.1 mL of 20 mM HPPA solution (dissolved with 0.2 M Tris-HCl buffer, pH 8.3), and 22 ml of 2 M Tris-HCl buffer (pH 8.3) for 110 reaction assays.
Fluorescence intensity (Fs) was measured at 405 nm by irradiation excitation at 320 nm. The higher the DAO enzymatic activity was, the higher the fluorescence intensity. The fluorometric inhibition indicator (Fi) was obtained from the following equation: Fi=(Fs-FDrug)/(FDMSO), where the fluorescent drug blank (FDrug) was measured in the drug mixture solution (using 0.2 M Tris HCl buffer, pH 8.3, without D-alanine). A DMSO blank (FDMSO) was measured under a 100% DMSO solution.
Although FAD is generally included in the reaction mixture in the D-amino acid oxidase assay since it easily dissociates from the holoenzyme, the present method was performed without FAD. The inhibitory effect of DAO inhibitors was compared by using inhibitory concentrations leading to 50% inhibition of DAAO activity (IC50). The IC50 values were calculated by nonlinear regression model using GraphPad Prism, version 5(GraphPad Software, Inc., La Jolla, Calif.).

Experiment [2] concerns the target T2, DAO in SK-N-SH neuroblastoma cells (Homo sapiens, UniProt P14920).
T2 construct: endogenous in cells; host or cells: SK-N-SH neuroblastoma cells (ATCC)
The experiment can be described thus: Cell-based DAO assay in SK-N-SH cells. Also noted: key to Relative DAO activity normalize to DMSO at Final Conc. 100 uM / Relative DAO activity normalize to DMSO at Final Conc. 10 uM: fraction of DMSO-control DAO activity (1 = DMSO). To be noted: SK-N-SH 1.25*10^5 cells/well, drug treated for 3.5 hr; for IC50: 50 mM D-serine. The method, then: The SK-N-SH neuroblastoma cell line was purchased from American Type Culture Collection (ATCC). It was cultured in MEM media (Invitrogen/GIBCO, Rockville, Md.) supplemented with 10% fetal bovine serum, 1×NEAA (Invitrogen/GIBCO) at 37° C. with 5% CO2 in a humidified atmosphere. Cells were trypsinized and plated into a black 96-well plate (NUNC No. 237108) at a density of 125,000 cells/well in 50 μl before cell-based DAO assay.
The cellular DAO activity assay was using a method modified according to the report of Brandish et al. (Brandish, P. E., et al., A cell-based ultra-high-throughput screening assay for identifying inhibitors of D-amino acid oxidase. J Biomol Screen, 2006. 11(5): p. 481-7). SK-N-SH cells were suspended in assay buffers of HANKS buffer solution (Invitrogen/GIBCO No. 14025-092) with 20 mM HEPES. D-serine of (final concentration 50 mM) was added in each well as the substrate for DAO enzyme. The Amplex Red Hydrogen Peroxide/Proxidase Assay Kit (Molecular Probes/Invitrogen, cat. A22188) was used to measure H2O2 production which diffused across the cell membrane into the assay medium after DAO reaction. After seeding cells into black 96-well plate (Nunc No. 237108, Denmark), 50 μl of SK-N-SH cells (125,000 cells/well) was mixed with 50 μl drug solution (2.5 fold of interesting final concentration) and incubate at 37° C. with 5% CO2 in a humidified atmosphere for 30 minutes. After 30 minutes later, 25 μl of a 5 fold mixture containing D-serine, horseradish peroxidase (HRP), and Amplex Red was added into wells containing 100 μl of cell-drugs mixture and incubated at 37° C. with 5% CO2 in a humidified atmosphere for 3 hours. The final concentration of DMSO is below 1%. The fluorescence signal was then detected in SpectraMax M2e microplate reader (Molecular Devices, USA) with excitation at 544 nm and emission at 590 nm. The optimized assay buffer contained a final concentration of 50 mM D-serine, 0.625 units HRP, and 50 μM Amplex Red in a 125 μl assay volume.

T1 sequence (P00371 whole entry): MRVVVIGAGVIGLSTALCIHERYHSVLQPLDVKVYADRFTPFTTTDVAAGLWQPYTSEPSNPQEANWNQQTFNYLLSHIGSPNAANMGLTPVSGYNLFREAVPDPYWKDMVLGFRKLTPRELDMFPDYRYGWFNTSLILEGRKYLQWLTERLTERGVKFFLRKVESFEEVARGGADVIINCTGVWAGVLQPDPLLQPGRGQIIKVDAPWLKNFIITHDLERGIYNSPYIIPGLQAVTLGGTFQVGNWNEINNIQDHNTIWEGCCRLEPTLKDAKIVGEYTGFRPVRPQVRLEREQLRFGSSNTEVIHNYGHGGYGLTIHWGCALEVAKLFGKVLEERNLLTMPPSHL
T2 sequence (P14920 whole entry): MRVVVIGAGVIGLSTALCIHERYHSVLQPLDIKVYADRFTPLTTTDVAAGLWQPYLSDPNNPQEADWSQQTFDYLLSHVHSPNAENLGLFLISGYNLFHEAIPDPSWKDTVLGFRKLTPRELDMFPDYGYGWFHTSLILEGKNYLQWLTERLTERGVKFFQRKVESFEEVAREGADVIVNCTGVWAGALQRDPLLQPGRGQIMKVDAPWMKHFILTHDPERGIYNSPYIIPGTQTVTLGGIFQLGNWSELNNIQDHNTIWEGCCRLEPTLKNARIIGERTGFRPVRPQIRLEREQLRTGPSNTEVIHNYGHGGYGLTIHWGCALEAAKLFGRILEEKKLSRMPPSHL

In general, IC50 refers to the concentration that gives 50% inhibition. On to `O=c1[nH]oc2ccc(Cl)cc12` [CBIO, reference compound], for which half-maximal inhibition in experiment [1] (IC50) was put at 0.583 µM. In addition, in experiment [2], the “Relative DAO activity normalize to DMSO at Final Conc. 10 uM” value is listed as 1.00, the “Relative DAO activity normalize to DMSO at Final Conc. 100 uM” value was 0.83 and the IC50 was found to be 392 µM.

On to `COc1ccc(C(=O)Oc2ccc3[nH]c([S+]([O-])Cc4ncc(C)c(OC)c4C)nc3c2)cc1` (stereo not shown) [compound 11020, 2-(((4-methoxy-3,5-dimethylpyridin-2-yl)methyl)sulfinyl)-1H-benzo[d]imidazol-5-yl 4-methoxybenzoate], for which the IC50 in experiment [1] came out at 10.4 µM. Also, in experiment [2], the “Relative DAO activity normalize to DMSO at Final Conc. 10 uM” value stood at 0.97, the “Relative DAO activity normalize to DMSO at Final Conc. 100 uM” value is listed as 0.67 and half-maximal inhibition (IC50) required 221 µM.

`COc1c(C)cnc(C[S+]([O-])c2nc3cc(OC(=O)c4ccco4)ccc3[nH]2)c1C` (stereo not shown) [compound 12122, 2-(((4-methoxy-3,5-dimethylpyridin-2-yl)methyl)sulfinyl)-1H-benzo[d]imidazol-5-yl furan-2-carboxylate] gave an IC50 in experiment [1] of 12.5 µM. Moreover, in experiment [2], the “Relative DAO activity normalize to DMSO at Final Conc. 10 uM” value was 0.98, the “Relative DAO activity normalize to DMSO at Final Conc. 100 uM” value came to 0.57 and it took 147 µM to reach half-maximal inhibition (IC50).

The compound `C/C=C\C(=O)Oc1ccc2[nH]c([S+]([O-])Cc3ncc(C)c(OC)c3C)nc2c1` (stereo not shown) [compound 12124, 2-(((4-methoxy-3,5-dimethylpyridin-2-yl)methyl)sulfinyl)-1H-benzo[d]imidazol-5-yl (Z)-but-2-enoate] showed an IC50 in experiment [1] of 11.2 µM. In experiment [2], the “Relative DAO activity normalize to DMSO at Final Conc. 10 uM” value is recorded as 0.97, the “Relative DAO activity normalize to DMSO at Final Conc. 100 uM” value came to 0.36 and half-maximal inhibition (IC50) required 108 µM.

`COc1c(C)cnc(C[S+]([O-])c2nc3cc(OC(=O)C=C(C)C)ccc3[nH]2)c1C` (stereo not shown) [compound 12125, 2-(((4-methoxy-3,5-dimethylpyridin-2-yl)methyl)sulfinyl)-1H-benzo[d]imidazol-5-yl 3-methylbut-2-enoate]: 13.3 µM corresponded to half-maximal inhibition in experiment [1] (IC50). Moreover, in experiment [2], the “Relative DAO activity normalize to DMSO at Final Conc. 10 uM” value is given as 0.80; the “Relative DAO activity normalize to DMSO at Final Conc. 100 uM” value is on record as 0.50; the midpoint of inhibition, the IC50, lay at 122 µM.

The compound `COc1c(C)cnc(C[S+]([O-])c2nc3cc(OP(=O)(Oc4ccccc4)Oc4ccccc4)ccc3[nH]2)c1C` (stereo not shown) [compound 13084, 2-(((4-methoxy-3,5-dimethylpyridin-2-yl)methyl)sulfinyl)-1H-benzo[d]imidazol-5-yl diphenyl phosphate] displayed an IC50 in experiment [1] of 181 µM. For the same compound, in experiment [2], the “Relative DAO activity normalize to DMSO at Final Conc. 10 uM” value worked out at 0.71, the “Relative DAO activity normalize to DMSO at Final Conc. 100 uM” value stood at 0.49 and the IC50 turned out to be 34.9 µM.

Regarding `COc1c(C)cnc(CN(Cc2ncc(C)c(OC)c2C)c2nc3cc(C(=O)O)ccc3n2CCC2=CCCCC2)c1C` [compound 21105, 2-(bis((4-methoxy-3,5-dimethylpyridin-2-yl)methyl)amino)-1-(2-(cyclohex-1-en-1-yl)ethyl)-1H-benzo[d]imidazole-5-carboxylic acid], the IC50 in experiment [1] was 301 µM. In experiment [2], the “Relative DAO activity normalize to DMSO at Final Conc. 10 uM” value was found to be 0.89, the “Relative DAO activity normalize to DMSO at Final Conc. 100 uM” value turned out to be 0.58 and half-maximal inhibition (IC50) was put at 219 µM.

In turn, `COC(=O)c1ccc2c(c1)N=C(NCc1ncc(C)c(OC)c1C)N(CCC1=CCCCC1)C2` [compound 21106, Methyl 3-(2-(cyclohex-1-en-1-yl)ethyl)-2-(((4-methoxy-3,5-dimethylpyridin-2-yl)methyl)amino)-3,4-dihydroquinazoline-7-carboxylate] yielded an IC50 in experiment [1] of 488 µM. Besides, in experiment [2], the “Relative DAO activity normalize to DMSO at Final Conc. 10 uM” value was found to be 1.02, the “Relative DAO activity normalize to DMSO at Final Conc. 100 uM” value was 0.77 and the IC50 was found to be 478 µM.

As for `COc1c(C)cnc(C[S+]([O-])c2nc3cc(OC(C)=O)ccc3[nH]2)c1C` (stereo not shown) [compound 21122, 2-(((4-methoxy-3,5-dimethylpyridin-2-yl)methyl)sulfinyl)-1H-benzo[d]imidazol-5-yl acetate], half-maximal inhibition in experiment [1] (IC50) was put at 21.1 µM. Besides, in experiment [2], the “Relative DAO activity normalize to DMSO at Final Conc. 10 uM” value was 0.99, the “Relative DAO activity normalize to DMSO at Final Conc. 100 uM” value amounted to 0.50 and it took 149 µM to reach half-maximal inhibition (IC50).

In the case of `COc1c(C)cnc(C[S+]([O-])c2nc3cc(OC(=O)OC(C)(C)C)ccc3[nH]2)c1C` (stereo not shown) [compound 21132, tert-butyl (2-(((4-methoxy-3,5-dimethylpyridin-2-yl)methyl)sulfinyl)-1H-benzo[d]imidazol-5-yl)carbonate], in experiment [1], the IC50 came to 64.2 µM. In addition, in experiment [2], the “Relative DAO activity normalize to DMSO at Final Conc. 10 uM” value amounted to 0.94; the “Relative DAO activity normalize to DMSO at Final Conc. 100 uM” value is 0.61; the midpoint of inhibition, the IC50, lay at 175 µM.

`CCCCC(=O)Oc1ccc2[nH]c([S+]([O-])Cc3ncc(C)c(OC)c3C)nc2c1` (stereo not shown) [compound 25016, 2-(((4-methoxy-3,5-dimethylpyridin-2-yl)methyl)sulfinyl)-1H-benzo[d]imidazol-5-yl pentanoate] returned an IC50 in experiment [1] of 13.4 µM. In addition, in experiment [2], the “Relative DAO activity normalize to DMSO at Final Conc. 10 uM” value was 1.00, the “Relative DAO activity normalize to DMSO at Final Conc. 100 uM” value worked out at 0.62 and half-maximal inhibition (IC50) required 188 µM.

`COc1c(C)cnc(C[S+]([O-])c2nc3cc(OC(=O)C4CCC4)ccc3[nH]2)c1C` (stereo not shown) [compound 25027, 2-(((4-methoxy-3,5-dimethylpyridin-2-yl)methyl)sulfinyl)-1H-benzo[d]imidazol-5-yl cyclobutanecarboxylate] returned an IC50 in experiment [1] of 21 µM. For the same compound, in experiment [2], the “Relative DAO activity normalize to DMSO at Final Conc. 10 uM” value was determined as 1.15, the “Relative DAO activity normalize to DMSO at Final Conc. 100 uM” value is given as 0.69 and 240 µM corresponded to half-maximal inhibition (IC50).

Turning to `COC(=O)c1ccc2c(c1)N=C(N(Cc1ncc(C)c(OC)c1C)Cc1ncc(C)c(OC)c1C)N(Cc1ccco1)C2` [compound 26072, Methyl 2-(bis((4-methoxy-3,5-dimethylpyridin-2-yl)methyl)amino)-3-(furan-2-ylmethyl)-3,4-dihydroquinazoline-7-carboxylate], 236 µM corresponded to half-maximal inhibition in experiment [1] (IC50). Besides, in experiment [2], the “Relative DAO activity normalize to DMSO at Final Conc. 10 uM” value was 0.87, the “Relative DAO activity normalize to DMSO at Final Conc. 100 uM” value came out at 0.74 and the IC50 was 393 µM.
